{
  "source": "patent US7351722B2",
  "about": "“Use of Mangafodipir for treating oxidative stress effects” (Universite Rene Descartes (Paris V), priority 2001, dated 2008)",
  "key": {"[1]": {"test_system": "acetaminophen-induced acute hepatic failure", "details": "mice given acetaminophen", "text": "In each of the groups, the livers of several animals were removed in order to perform a histological study."}, "[2]": {"test_system": "acetaminophen-induced acute hepatic failure", "assay": "Animal survival in acetaminophen-induced acute hepatic failure, comparison of Mangafodipir, MnTBAP and CuDIPS (Example 7)", "assay_type": "in vivo, mice", "details": "for number of surviving animals: 10 mg/kg bolus 2 h before 1000 mg/kg APAP, n = 12", "procedure": "The Mangafodipir, the MnTBAP or the CuDIPS are administered in the form of a bolus, in the preventive capacity, 2 hours before the acetaminophen.\nAnimal survival is monitored for 24 hours after the administration of acetaminophen."}, "[3]": {"test_system": "acetaminophen-induced acute hepatic failure", "details": "for survival rate: 24 hours after APAP 1000 mg/kg; for number of surviving animals: n = 12", "procedure": "Intraperitoneal injection of acetaminophen into mice induces severe hepatotoxicity, the degree of which can be evaluated by animal survival and macroscopic and microscopic examination of the livers.\nThe Mangafodipir (marketed under the name […]™ by Nicomed-Amersham) is administered in the form of a bolus, intraperitoneally.\nThe acetaminophen (APAP), in solution at 100 mg/ml in PBS, at pH 7.4, is administered intraperitoneally.\nIn a first series of experiments, one group of mice was given a dose of 1000 mg/kg of acetaminophen; a second group was given a dose of 1000 mg/kg of acetaminophen, and a dose of 10 mg/kg of Mangafodipir administered either 2 h before the acetaminophen, or 6 h after; a control group was given Mangafodipir alone (10 mg/kg), or PBS alone.\nAnimal survival was monitored for 24 hours after the administration of acetaminophen."}, "[4]": {"details": "75.7 μg of Mangafodipir, 10 mM H2O2, pH 7.4", "procedure": "The catalase activity was assayed according to the method described by AEBI [Methods Enzymol., 105, 121-126, (1984)]. The decrease in optical density (OD) at 240 nm of a solution of 10 mM H2O2 in phosphate buffer (50 mM of Na2HPO4/KH2PO4, 0.1 mM EDTA, pH 7.4) was measured in the presence of 75.7 μg of Mangafodipir or, by way of reference, in the presence of 1 unit of bovine catalase."}, "[5]": {"details": "spectrophotometry at 340 nm for 5 minutes", "procedure": "The glutathione reductase activity was assayed using the kit: “Glutathione reductase assay kit” marketed by the company Calbiochem. The reaction mixture is analyzed by spectrophotometry at 340 nm for 5 minutes."}, "[6]": {"test_system": "Hep 3B human hepatic cell line", "details": "62.5, 125, 250 μg/ml, 1 h before X/XO, MTT after 12 h", "procedure": "The cells were seeded in a 96-well culture plate, in a proportion of 5×10^4 cells per well, in a final volume of 50 μl.\nOne hundred μl of Mangafodipir solution at various concentrations (62.5, 125, 250 μg/ml) were deposited into each well (three wells per concentration tested)."}, "[7]": {"procedure": "The SOD activity of a chemical compound can be determined by the NBT (nitro blue tetrazolium) reduction method according to the technique described by Beauchamp and Fridovich [Anal. Biochem., 44(1), 276-87, (1971)].\nThe test is carried out at 25° C. in a final volume of buffer of 0.8 ml (50 mM TRIS/HCl, pH 7.6), containing 22 μM of xanthine, 500 U/ml of catalase and 0.2 U/ml of xanthine oxidase. The reduction of NBT, in the presence of 1.5 μg of Mangafodipir or, as a control, in the absence of Mangafodipir, is measured every 30 seconds for 5 minutes. One SOD unit (U SOD) is defined by the amount of enzyme capable of inhibiting the NBT reduction rate by 50%."}, "[8]": {"test_system": "acetaminophen-induced acute hepatic failure", "details": "500 mg/kg APAP, ASAT after 12 hours", "procedure": "In a second series of experiments, one group of mice was given a dose of 500 mg/kg of acetaminophen; a second group was given the same dose of acetaminophen, and a dose of 10 mg/kg of Mangafodipir administered 2 h before the acetaminophen; a third group of animals was given the same dose of acetaminophen, and a dose of 10 mg/kg of MnTBAP, and a fourth group of animals was given the same dose of acetaminophen, and a dose of 10 mg/kg of CuDIPS. The ASAT serum transaminases are assayed 12 hours after the administration of acetaminophen."}},
  "note": "Like-named read-outs stand apart in the source and are kept apart here.",
  "data": [
    {"substance": "Manganese dipyridoxyl phosphate [Mangafodipir]", "values": [
      {"measurement": "apoptotic lesions in liver, treated versus not treated", "setting": "[1]", "value": "considerably fewer apoptotic lesions"},
      {"measurement": "number of surviving animals", "setting": "[2]; time 0 h", "value": 12},
      {"measurement": "number of surviving animals", "setting": "[2]; time 6 h", "value": 12},
      {"measurement": "number of surviving animals", "setting": "[2]; time 8 h", "value": 12},
      {"measurement": "number of surviving animals", "setting": "[2]; time 9 h", "value": 12},
      {"measurement": "number of surviving animals", "setting": "[2]; time 10 h", "value": 11},
      {"measurement": "number of surviving animals", "setting": "[2]; time 11 h", "value": 11},
      {"measurement": "number of surviving animals", "setting": "[2]; time 12 h", "value": 11},
      {"measurement": "number of surviving animals", "setting": "[2]; time 13 h", "value": 10},
      {"measurement": "number of surviving animals", "setting": "[2]; time 14 h", "value": 10},
      {"measurement": "number of surviving animals", "setting": "[2]; time 15 h", "value": 10},
      {"measurement": "number of surviving animals", "setting": "[2]; time 16 h", "value": 9},
      {"measurement": "number of surviving animals", "setting": "[2]; time 17 h", "value": 9},
      {"measurement": "number of surviving animals", "setting": "[2]; time 18 h", "value": 9},
      {"measurement": "number of surviving animals", "setting": "[2]; time 20 h", "value": 9},
      {"measurement": "number of surviving animals", "setting": "[2]; time 22 h", "value": 8},
      {"measurement": "number of surviving animals", "setting": "[2]; time 24 h", "value": 8},
      {"measurement": "effect on survival rate", "setting": "[2]; 10 mg/kg preventively, 1000 mg/kg APAP, 24 h", "value": "increases the survival rate in a manner at least equal to the MnTBAP"},
      {"measurement": "survival rate", "setting": "[3]; Mangafodipir after acetaminophen (curative protocol)", "value": "greater than 41%"},
      {"measurement": "survival rate", "setting": "[3]; Mangafodipir before acetaminophen (preventive protocol)", "value": "about 66%"},
      {"measurement": "number of surviving animals", "setting": "[3]; Group III preventive, 10 mg/kg i.p. 2 h before 1000 mg/kg APAP, time 0 h", "value": 12},
      {"measurement": "number of surviving animals", "setting": "[3]; Group III preventive, 10 mg/kg i.p. 2 h before 1000 mg/kg APAP, time 6 h", "value": 12},
      {"measurement": "number of surviving animals", "setting": "[3]; Group III preventive, 10 mg/kg i.p. 2 h before 1000 mg/kg APAP, time 8 h", "value": 12},
      {"measurement": "number of surviving animals", "setting": "[3]; Group III preventive, 10 mg/kg i.p. 2 h before 1000 mg/kg APAP, time 9 h", "value": 12},
      {"measurement": "number of surviving animals", "setting": "[3]; Group III preventive, 10 mg/kg i.p. 2 h before 1000 mg/kg APAP, time 10 h", "value": 11},
      {"measurement": "number of surviving animals", "setting": "[3]; Group III preventive, 10 mg/kg i.p. 2 h before 1000 mg/kg APAP, time 11 h", "value": 11},
      {"measurement": "number of surviving animals", "setting": "[3]; Group III preventive, 10 mg/kg i.p. 2 h before 1000 mg/kg APAP, time 12 h", "value": 11},
      {"measurement": "number of surviving animals", "setting": "[3]; Group III preventive, 10 mg/kg i.p. 2 h before 1000 mg/kg APAP, time 13 h", "value": 10},
      {"measurement": "number of surviving animals", "setting": "[3]; Group III preventive, 10 mg/kg i.p. 2 h before 1000 mg/kg APAP, time 14 h", "value": 10},
      {"measurement": "number of surviving animals", "setting": "[3]; Group III preventive, 10 mg/kg i.p. 2 h before 1000 mg/kg APAP, time 15 h", "value": 10},
      {"measurement": "number of surviving animals", "setting": "[3]; Group III preventive, 10 mg/kg i.p. 2 h before 1000 mg/kg APAP, time 16 h", "value": 9},
      {"measurement": "number of surviving animals", "setting": "[3]; Group III preventive, 10 mg/kg i.p. 2 h before 1000 mg/kg APAP, time 17 h", "value": 9},
      {"measurement": "number of surviving animals", "setting": "[3]; Group III preventive, 10 mg/kg i.p. 2 h before 1000 mg/kg APAP, time 18 h", "value": 9},
      {"measurement": "number of surviving animals", "setting": "[3]; Group III preventive, 10 mg/kg i.p. 2 h before 1000 mg/kg APAP, time 20 h", "value": 9},
      {"measurement": "number of surviving animals", "setting": "[3]; Group III preventive, 10 mg/kg i.p. 2 h before 1000 mg/kg APAP, time 22 h", "value": 8},
      {"measurement": "number of surviving animals", "setting": "[3]; Group III preventive, 10 mg/kg i.p. 2 h before 1000 mg/kg APAP, time 24 h", "value": 8},
      {"measurement": "number of surviving animals", "setting": "[3]; Group IV curative, 10 mg/kg i.p. 6 h after 1000 mg/kg APAP, time 0 h", "value": 12},
      {"measurement": "number of surviving animals", "setting": "[3]; Group IV curative, 10 mg/kg i.p. 6 h after 1000 mg/kg APAP, time 6 h", "value": 12},
      {"measurement": "number of surviving animals", "setting": "[3]; Group IV curative, 10 mg/kg i.p. 6 h after 1000 mg/kg APAP, time 8 h", "value": 11},
      {"measurement": "number of surviving animals", "setting": "[3]; Group IV curative, 10 mg/kg i.p. 6 h after 1000 mg/kg APAP, time 9 h", "value": 11},
      {"measurement": "number of surviving animals", "setting": "[3]; Group IV curative, 10 mg/kg i.p. 6 h after 1000 mg/kg APAP, time 10 h", "value": 10},
      {"measurement": "number of surviving animals", "setting": "[3]; Group IV curative, 10 mg/kg i.p. 6 h after 1000 mg/kg APAP, time 11 h", "value": 9},
      {"measurement": "number of surviving animals", "setting": "[3]; Group IV curative, 10 mg/kg i.p. 6 h after 1000 mg/kg APAP, time 12 h", "value": 9},
      {"measurement": "number of surviving animals", "setting": "[3]; Group IV curative, 10 mg/kg i.p. 6 h after 1000 mg/kg APAP, time 13 h", "value": 8},
      {"measurement": "number of surviving animals", "setting": "[3]; Group IV curative, 10 mg/kg i.p. 6 h after 1000 mg/kg APAP, time 14 h", "value": 8},
      {"measurement": "number of surviving animals", "setting": "[3]; Group IV curative, 10 mg/kg i.p. 6 h after 1000 mg/kg APAP, time 15 h", "value": 8},
      {"measurement": "number of surviving animals", "setting": "[3]; Group IV curative, 10 mg/kg i.p. 6 h after 1000 mg/kg APAP, time 16 h", "value": 7},
      {"measurement": "number of surviving animals", "setting": "[3]; Group IV curative, 10 mg/kg i.p. 6 h after 1000 mg/kg APAP, time 17 h", "value": 7},
      {"measurement": "number of surviving animals", "setting": "[3]; Group IV curative, 10 mg/kg i.p. 6 h after 1000 mg/kg APAP, time 18 h", "value": 7},
      {"measurement": "number of surviving animals", "setting": "[3]; Group IV curative, 10 mg/kg i.p. 6 h after 1000 mg/kg APAP, time 20 h", "value": 6},
      {"measurement": "number of surviving animals", "setting": "[3]; Group IV curative, 10 mg/kg i.p. 6 h after 1000 mg/kg APAP, time 22 h", "value": 6},
      {"measurement": "number of surviving animals", "setting": "[3]; Group IV curative, 10 mg/kg i.p. 6 h after 1000 mg/kg APAP, time 24 h", "value": 5},
      {"measurement": "catalase activity", "setting": "[4]", "value": "2 U catalase per milligram of Mangafodipir"},
      {"measurement": "glutathione reductase activity", "setting": "[5]", "value": "19.9±1.75 mU glutathione reductase per milligram of Mangafodipir"},
      {"measurement": "mortality of hepatic cells under superoxide anion-mediated oxidative stress", "setting": "[6]", "value": "prevents the mortality of hepatic cells"},
      {"measurement": "rate of reduction of NBT", "setting": "[7]; 1.5 μg of Mangafodipir in reaction mixture, control 0.0302/minute", "value": 0.01556, "unit": "min⁻¹"},
      {"measurement": "SOD activity", "setting": "[7]; 1 U SOD inhibits NBT reduction rate by 50%", "value": "680 U SOD per milligram of Mangafodipir"},
      {"measurement": "transaminase activities, APAP500 alone relative to Mangafodipir pretreatment", "setting": "[8]; 10 mg/kg 2 h before", "value": 10, "unit": "times"},
      {"measurement": "effect on transaminase activities", "setting": "[8]; 10 mg/kg", "value": "decreases the transaminase activities"}
    ]}
  ]
}
